# Measured values taken from article PMC11864979, “First-in-class ultralong-target-residence-time p38α inhibitors as a mitosis-targeted therapy for colorectal cancer” (Nature Cancer, 2025).
# Values joined by “and” are separate entries in the source; they are usually repeats but may differ in a detail not shown here. Equal values may be shown once.
# How the values were obtained:
# KMP organoids = test: cell viability in KMP organoids; type: cell-based, mouse
# Experimental: A total of 1,000–2,000 single cells were plated per well in white 96-well plates (Greiner) in culture medium containing 10% GFR Matrigel or Cultrex BME. The treatment with doxycycline (5 µg ml^−1), pharmacological inhibitors or corresponding volumes of DMSO was started 24 h after plating. Doxycycline was obtained from Sigma-Aldrich. […] Results were normalized to vehicle (DMSO) or to shNC. For cell-doubling assays, the cell number was quantified at the corresponding time points using Guava EasyCyte flow cytometer (Luminex, CytoSoft v5.2 software).
# PDO7 = test: cell viability in patient-derived CRC organoids PDO7; type: cell-based, human
# Experimental: (§1) For in vitro treatment studies, organoids were mechanically dissociated and digested using TrypLE supplemented with 100 µg ml^−1 DNaseI and 10.5 µM Y-27632 dihydrochloride (Invitrogen) at 37 °C. A total of 1,000–2,000 single cells were plated per well in white 96-well plates (Greiner) in culture medium containing 10% GFR Matrigel or Cultrex BME. The treatment with doxycycline (5 µg ml^−1), pharmacological inhibitors or corresponding volumes of DMSO was started 24 h after plating. Doxycycline was obtained from Sigma-Aldrich. […] Cell viability was measured by means of CellTiter-Glo 3D or CellTiter-Glo 2.0 reagent (Promega) according to the manufacturers’ instructions and the Infinite M Plex reader (Tecan, i-control version 3.9.1 software). Results were normalized to vehicle (DMSO) or to shNC. For cell-doubling assays, the cell number was quantified at the corresponding time points using Guava EasyCyte flow cytometer (Luminex, CytoSoft v5.2 software).
# KAP liver metastasis = test: survival of wild-type mice with KAP liver metastasis; type: in vivo, mouse
# Experimental: Subcutaneous injection, splenic seeding or cecum injection of organoids was performed in 8–10-week-old C57BL/6 N/Crl, Rag2^−/− (B6.Cg-Rag2^tm1.1Cgn/J), or CB17 Scid beige (CB17.Cg-Prkdc^scidLyst^bg-J/Crl) mice, obtained from Charles River. The organoids were dissociated into single cells, washed with PBS and injected in a 1:1 mixture of PBS and Matrigel. For murine organoids, 1 × 10^5 cells were injected into the left and right flanks or the spleen capsule and 2 × 10^6 cells were injected into the cecum wall. For human organoids, 4 × 10^5 cells were injected into the flanks of CB17 Scid beige mice. For splenic seeding and cecum injection, mice were anaesthetized using ketamine (100 mg kg^−1, intraperitoneally) and xylazin (10 mg/kg, intraperitoneally) in NaCl and a small laparotomy below the thorax was performed.
# [1] = in vivo pharmacokinetic studies in mice (plasma, LC-MS); design: species or system mouse
# Experimental: No mice were excluded during treatment studies. […] GFP imaging of tumors was performed using a Hamamatsu imaging system. For quantification of compounds in the murine plasma, 20 μl of tail-vein blood was diluted with 80 μl of heparin solution, before 200 μl of ice-cold acetonitrile with a defined internal standard was added. The samples were sonicated and centrifuged and the supernatant was subjected to liquid chromatography-mass spectrometry quantification. Full blood analyses were performed with the Sysmex KX-21N hematology analyzer.
# PDO4 = test: cell viability in patient-derived CRC organoids PDO4; type: cell-based, human; conditions: Fig. 3e, replicates
# Experimental: as §1
# PDO13 = test: cell viability in patient-derived CRC organoids PDO13; type: cell-based, human
# Experimental: as §1
# PDO11 = test: cell viability in patient-derived CRC organoids PDO11; type: cell-based, human
# Experimental: as §1
# KAP^2D cells = test: P-H3^S10 / α-tubulin staining, mitotic phases in KAP^2D cells; type: cell-based, mouse; conditions: replicates, experiment and repetition
# Experimental: Immunofluorescence staining on cells and organoids was performed on glass coverslips or tissue culture chambers (Sarstedt). Organoids were plated in medium containing 10% Matrigel or Cultrex BME. The cultures were fixed with 4% paraformaldehyde and stained with specific antibodies and DAPI (Vector Labs). All used antibodies and dilutions are listed in the Nature Portfolio Reporting Summary. For analyzing DNA synthesis, the Molecular Probes Click-iT EdU Alexa Fluor 555 kit was used 24 h after EdU incorporation with DAPI counterstaining. SA-β-Gal staining of cells was performed in cell culture dishes (cells) or tissue culture chambers (organoids) after fixation with 0.5% glutaraldehyde as described above. Human cultures were incubated with X-Gal solution at pH 6.0 for ~4 h. […] Positive cells were quantified using ImageJ version 1.53a software. The analysis of mitosis was performed with an LSM800 Airyscan (Zeiss) microscope (ZEN version 3.0 software). An Airyscan autofilter processing was applied before image analysis.
# PDO3 = test: cell viability in patient-derived CRC organoids PDO3; type: cell-based, human; conditions: Fig. 3d, replicates
# Experimental: as §1
# PDO2 = test: cell viability in patient-derived CRC organoids PDO2; type: cell-based, human; conditions: Fig. 3c, replicates
# Experimental: as §1
# PDO1 = test: cell viability in patient-derived CRC organoids PDO1; type: cell-based, human; conditions: Fig. 3b, replicates
# Experimental: as §1
# [2] = mouse, plasma, oral administration in mice, 20 mg kg^−1
# [3] = oral administration in mice, 20 mg kg^−1
smiles,measurement,setting,value
O=C(NCCN1CCOCC1)c1ccc2c(c1)C(=O)c1ccc(Nc3ccc(F)c(NC(=O)c4ccccc4)c3)cc1CC2 [Compound 1639],therapeutic effect in KMP organoids (in words),KMP organoids; 4 days,no therapeutic effects
same,Cell viability (%),"KMP organoids; Fig. 2i, 0,5 µM, replicates, 5 µM",101.57% and 92.29%
same,Cell viability (%),"KMP organoids; Fig. 2i, 0,25 µM, replicates",98.98% and 85.31% and 57.91%
same,Cell viability (%),"KMP organoids; Fig. 2i, 1 µM, replicates",98.40% and 93.50%
same,viability at 5 µM,"KMP organoids; Mus musculus, Fig. 2i, 0,5 µM, replicates",85.5%
same,viability at 1 µM,"KMP organoids; Mus musculus, Fig. 2i, 1 µM, replicates",105%
same,viability at 1 µM,"PDO7; Homo sapiens, 96 h, PDO7, 1 µM, 4 days, read-out: Cell viability (%)",103%
same,Cell viability (%),"PDO7; PDO7, 0.5 µM, 4 d, 0.5 µM",99.28% and 131.17% and 112.30%
same,Cell viability (%),"PDO7; PDO7, 1 µM, 4 days, 1 µM",115.94% and 100.13%
same,survival / therapeutic efficacy in KAP liver metastasis (in words),"KAP liver metastasis; 20 mg kg^−1 daily, start 5 weeks after organoid inoculation",slight but nonsignificant survival benefit
same,Survival,"KAP liver metastasis; single animals, 1 = event, 0 = censored, Fig. 6e",26 d of treatment and 29 d of treatment and 11 d of treatment and 12 d of treatment and 25 d of treatment and 27 d of treatment and 20 d of treatment
same,Plasma concentration,"[1]; 0 min of treatment, individual animals",0.00 µM
same,Plasma concentration,"[1]; 45 min of treatment, individual animals",7.88 µM and 3.04 µM and 8.11 µM
same,Plasma concentration,"[1]; 90 min of treatment, individual animals",5.28 µM and 6.24 µM
same,Plasma concentration,"[1]; 180 min of treatment, individual animals",4.65 µM and 2.91 µM and 1.27 µM
same,Plasma concentration,"[1]; 480 min of treatment, individual animals",0.69 µM and 0.19 µM and 0.76 µM
same,Plasma concentration,"[1]; 1440 min of treatment, individual animals",0.00 µM
same,concentration at 0 min,"[1]; mouse, plasma, oral, 20 mg kg^−1, 0 min of treatment, individual animals",0 nM
same,concentration at 90 min,"[1]; mouse, plasma, oral, 20 mg kg^−1, 90 min of treatment, individual animals",8.68 µM
same,concentration at 1440 min,"[1]; mouse, plasma, oral, 20 mg kg^−1, 1440 min of treatment, individual animals",0 nM
same,AUC,[1]; [2],27.6 µM·h
same,half-life,[1]; [2],120 min
same,C^max,[1]; [3],6.7 µM
same,t^max,[1]; [3],90 min
same,Cell viability (%),"PDO4; 0,5 µM, 5 µM",53.06% and 53.55%
same,Cell viability (%),"PDO4; 0,25 µM, 25 µM",68.57% and 69.02%
same,Cell viability (%),PDO4; 1 µM,67.76% and 68.24%
same,viability at 5 µM,"PDO4; Homo sapiens, 0,5 µM",50.2%
same,viability at 25 µM,"PDO4; Homo sapiens, 0,25 µM",67.4%
same,viability at 1 µM,"PDO4; Homo sapiens, 1 µM",66.9%
same,viability at 0.5 µM,"PDO13; Homo sapiens, 96 h, PDO13, 0.5 µM, 4 d, read-out: Cell viability (%)",93.8%
same,viability at 1 µM,"PDO13; Homo sapiens, 96 h, PDO13, 1 µM, 4 days, read-out: Cell viability (%)",84.5%
same,Cell viability (%),"PDO13; PDO13, 0.5 µM, 4 d, 0.5 µM",111.59% and 96.20%
same,Cell viability (%),"PDO13; PDO13, 1 µM, 4 days, 1 µM",86.80% and 77.48%
same,Cell viability (%),"PDO11; PDO11, 0.5 µM, 4 d, 0.5 µM",109.25% and 122.99% and 99.10%
same,Cell viability (%),"PDO11; PDO11, 1 µM, 4 days, 1 µM",102.62% and 119.73% and 93.65%
same,"Anaphase, % (of fully P-H3S10+ cells)",KAP^2D cells; Fig. 4f,14.94% and 12.77% and 11.59% and 15.15% and 10.11% and 8.57%
same,"Metaphase, % (of fully P-H3S10+ cells)",KAP^2D cells; Fig. 4f,17.24% and 21.28% and 8.70% and 19.70% and 24.72% and 20.00%
same,"Multipolar mitosis, % (of fully P-H3S10+ cells)",KAP^2D cells; Fig. 4f,9.20% and 12.77% and 8.70% and 9.09% and 10.11% and 8.57%
same,"Telophase, % (of fully P-H3S10+ cells)",KAP^2D cells; Fig. 4f,12.64% and 9.57% and 7.25% and 16.67% and 10.11% and 14.29%
same,"P-H3S10+ cells, fully positive",KAP^2D cells; Fig. 4d,5.80% and 5.96% and 4.15% and 4.12% and 5.10% and 3.55%
same,"P-H3S10+ cells, partially positive",KAP^2D cells; Fig. 4d,8.66% and 7.86% and 7.71% and 7.49% and 8.02% and 8.52%
same,Cell viability (%),"PDO3; 0,5 µM, 5 µM",112.45% and 94.73% and 79.47%
same,Cell viability (%),"PDO3; 0,25 µM, 25 µM",111.26% and 82.86% and 90.87%
same,Cell viability (%),PDO3; 1 µM,101.94% and 81.53% and 90.79%
same,Cell viability (%),"PDO2; 0,5 µM, 5 µM",69.57% and 95.69% and 90.88%
same,Cell viability (%),"PDO2; 0,25 µM",93.94% and 86.22% and 63.24%
same,Cell viability (%),PDO2; 1 µM,53.19% and 51.96%
same,viability at 1 µM,"PDO2; Homo sapiens, 1 µM",68.7%
same,Cell viability (%),PDO1; 0.5 µM,106.52% and 84.18% and 86.35%
same,Cell viability (%),PDO1; 1 µM,70.08% and 65.69%
same,viability at 1 µM,"PDO1; Homo sapiens, 1 µM",63%
